Source: US12637478B2, “Compound, preparation method thereof, and antibiotic composition comprising same” (priority 2020, dated 2026)
Converted amounts (≈) assume the structure as drawn. Read-outs that look alike come from different tables or passages of the source.

Key:
S. aureus^MS [1] = assay: MIC by broth microdilution (aerobic pathogens), test strain 1; format: cell-based; settings: Staphylococcus aureus
Method: (§1) The antibacterial activity of the compounds of Examples 1 to 48 of the present invention against aerobic pathogens were evaluated by measuring the minimum concentration of the antibiotic capable of inhibiting bacterial growth by 90% compared to the growth of the non-drug treated control group. MIC was measured by the broth microdilution method based on CLSI standards [Reference: Clinical and Laboratory Standards Institute Document. (2000) Methods for Dilution Antimicrobial Susceptibility Test for Bacteria that Grow Aerobically-Fifth Edition: M7-A5. CLSI, Villanova, PA].
(§2) All 13 strains such as methicillin susceptible Staphylococcus aureus (MSSA), methicillin resistant Staphylococcus aureus (MRSA), Vancomycin resistant Staphylococcus aureus (VRSA), Staphylococcus epidermidis, methicillin resistant Staphylococcus epidermidis, Enterococcus faecalis, Vancomycin resistant Enterococcus faecalis, Enterococcus faecium, Vancomycin resistant Enterococcus faecium were used.

S. epidermis^MR = assay: MIC by broth microdilution (aerobic pathogens), test strain 6; format: cell-based, Methicillin resistant Staphylococcus epidermidis; settings: Staphylococcus epidermidis
Method: as §1, §2

C. difficile 174 = assay: MIC by agar dilution against Clostridioides difficile, test strain 18; format: cell-based
C. difficile 152 = assay: MIC by agar dilution against Clostridioides difficile, test strain 14; format: cell-based
E. faecalis^LinR = assay: MIC by broth microdilution (aerobic pathogens), test strain 9; format: cell-based, Linezolid resistant Enterococcus faecalis; settings: Enterococcus faecalis
Method: as §1, §2

E. faecalis^VanA = assay: MIC by broth microdilution (aerobic pathogens), test strain 8; format: cell-based, Vancomycin resistant Enterococcus faecalis; settings: Enterococcus faecalis; test strain 8, E. faecalis^VanA (vancomycin resistant); read-out: MIC
Method: as §1, §2

E. faecium = assay: MIC by broth microdilution (aerobic pathogens), test strain 10; format: cell-based; settings: Enterococcus faecium
Method: as §1, §2

C. difficile 181 = assay: MIC by agar dilution against Clostridioides difficile, test strain 19; format: cell-based
C. difficile 9689 = assay: MIC by agar dilution against Clostridioides difficile, test strain 13; format: cell-based
S. epidermis = assay: MIC by broth microdilution (aerobic pathogens), test strain 5; format: cell-based; settings: Staphylococcus epidermidis
Method: as §1, §2

C. difficile 173 = assay: MIC by agar dilution against Clostridioides difficile, test strain 17; format: cell-based
M. avium = assay: MIC by resazurin (REMA) assay against Mycobacterium, test strain 21; format: cell-based
Method: (§3) In order to test the antibacterial activity, the medium of Mycobacterium cultured to late log phase was diluted so as to be 4.0×10^5 cells/well in Middlebrook 7H10 agar medium (Difco) supplemented with 10% oleic acid, albumin, dextrose, catalase (OADC, Becton Dickinson) and 0.05% Tween 80 (Sigma Aldrich) and was dispensed into a 96-well plate. The compounds were treated so that DMSO was 1%, and after 3 days, a 0.025% resazurin (REMA) solution was dispensed, and the growth of the bacteria was confirmed after culturing. The MIC value was measured for the antibacterial activity through resazurin (excitation 530 nm, emission 590 nm).

S. aureus^MS [2] = assay: MIC by broth microdilution (aerobic pathogens), test strain 2; format: cell-based; settings: Staphylococcus aureus
Method: as §1, §2

E. faecalis = assay: MIC by broth microdilution (aerobic pathogens), test strain 7; format: cell-based; settings: Enterococcus faecalis
Method: as §1, §2

C. difficile 161 = assay: MIC by agar dilution against Clostridioides difficile, test strain 16; format: cell-based
M. intracelluare = assay: MIC by resazurin (REMA) assay against Mycobacterium, test strain 22; format: cell-based; settings: Mycobacterium intracellulare
Method: as §3

M. abscessus = assay: MIC by resazurin (REMA) assay against Mycobacterium, test strain 23; format: cell-based; settings: Mycobacteroides abscessus
Method: as §3

C. difficile 159 = assay: MIC by agar dilution against Clostridioides difficile, test strain 15; format: cell-based; settings: test strain 15, C. difficile 159, anaerobic, agar dilution, read-out: MIC
S. aureus^VR = assay: MIC by broth microdilution (aerobic pathogens), test strain 4; format: cell-based, Vancomycin resistant Staphylococcus aureus; settings: Staphylococcus aureus; test strain 4, S. aureus^VR (vancomycin resistant); read-out: MIC
Method: as §1, §2

S. aureus^MR = assay: MIC by broth microdilution (aerobic pathogens), test strain 3; format: cell-based, Methicillin resistant Staphylococcus aureus; settings: Staphylococcus aureus; test strain 3, S. aureus^MR (methicillin resistant); read-out: MIC
Method: as §1, §2

E. faecium^VRE = assay: MIC by broth microdilution (aerobic pathogens), test strain 11; format: cell-based, Vancomycin resistant Enterococcus faecium; settings: Enterococcus faecium
Method: as §1, §2

E. faecium^LinR = assay: MIC by broth microdilution (aerobic pathogens), test strain 12; format: cell-based, Linezolid resistant Enterococcus faecium; settings: Enterococcus faecium; test strain 12, E. faecium^LinR (linezolid resistant); read-out: MIC
Method: as §1, §2

[3] = test strain 1, S. aureus^MS, read-out: MIC
[4] = test strain 6, S. epidermis^MR (methicillin resistant), read-out: MIC
[5] = test strain 18, C. difficile 174, anaerobic, agar dilution, read-out: MIC
[6] = test strain 14, C. difficile 152, anaerobic, agar dilution, read-out: MIC
[7] = test strain 9, E. faecalis^LinR (linezolid resistant), read-out: MIC
[8] = test strain 10, E. faecium, read-out: MIC
[9] = test strain 19, C. difficile 181, anaerobic, agar dilution, read-out: MIC
[10] = test strain 13, C. difficile 9689, anaerobic, agar dilution, read-out: MIC
[11] = test strain 17, C. difficile 173, anaerobic, agar dilution, read-out: MIC
[12] = test strain 21, M. avium, resazurin, read-out: MIC
[13] = test strain 2, S. aureus^MS, read-out: MIC
[14] = test strain 7, E. faecalis, read-out: MIC
[15] = test strain 16, C. difficile 161, anaerobic, agar dilution, read-out: MIC
[16] = test strain 23, M. abscessus, resazurin, read-out: MIC

Compound	MIC (S. aureus^MS [1]; [3])	MIC (S. epidermis^MR; [4])	MIC (C. difficile 174; [5])	MIC (C. difficile 152; [6])	MIC (E. faecalis^LinR; [7])	MIC (E. faecalis^VanA)	MIC (E. faecium; [8])	MIC (C. difficile 181; [9])	MIC (C. difficile 9689; [10])	MIC (C. difficile 173; [11])	MIC (M. avium; [12])	MIC (S. aureus^MS [2]; [13])	MIC (E. faecalis; [14])	MIC (C. difficile 161; [15])	MIC (M. abscessus; [16])	MIC (S. epidermis)	MIC (S. aureus^MS [1])	MIC (S. epidermis^MR)	MIC (E. faecalis)	other results
C/C=C1\NC(=O)[C@H]([C@@H](C)O)NC(=O)c2csc(n2)-c2ccc(-c3nc(-c4nc(C(=O)NC5(C(=O)NCCCN6CCN(C(C)C)CC6)CC5)cs4)cs3)nc2-c2csc(n2)[C@H]([C@@H](C)O)NC(=O)c2csc(n2)[C@H](C(C)C)NC(=O)c2csc1n2 [Compound 12]	1 µg/mL (≈ 0.797 µM)	1 µg/mL (≈ 0.797 µM)	0.125 µg/mL (≈ 0.0996 µM)	1 µg/mL (≈ 0.797 µM)	1 µg/mL (≈ 0.797 µM)	1 µg/mL (≈ 0.797 µM)	1 µg/mL (≈ 0.797 µM)	0.125 µg/mL (≈ 0.0996 µM)	0.5 µg/mL (≈ 0.399 µM)	1 µg/mL (≈ 0.797 µM)	0.135 µg/mL (≈ 0.108 µM)	1 µg/mL (≈ 0.797 µM)	1 µg/mL (≈ 0.797 µM)	0.5 µg/mL (≈ 0.399 µM)						MIC (S. epidermis; test strain 5, S. epidermis, read-out: MIC): 0.5 µg/mL (≈ 0.399 µM)
CC[C@H]1OC(=O)[C@H](C)[C@@H](O[C@H]2C[C@@](C)(OC)[C@@H](O)[C@H](C)O2)[C@H](C)[C@@H](O[C@@H]2O[C@H](C)C[C@H](N(C)C)[C@H]2O)[C@](C)(OC)C[C@@H](C)C(=O)[C@H](C)[C@@H](O)[C@]1(C)O [Cla, Clarithromycin, reference compound]											0.205 µg/mL (≈ 0.274 µM)				1.28 µg/mL (≈ 1.71 µM)					MIC (M. intracelluare; test strain 22, M. intracelluare, resazurin, read-out: MIC): 0.143 µg/mL (≈ 0.191 µM)
C/C=C1\NC(=O)[C@H]([C@@H](C)O)NC(=O)c2csc(n2)-c2ccc(-c3nc(-c4nc(C(=O)NC5(C(=O)NCCCN6C(=O)CNC6=O)CC5)cs4)cs3)nc2-c2csc(n2)[C@H]([C@@H](C)O)NC(=O)c2csc(n2)[C@H](C(C)C)NC(=O)c2csc1n2 [Compound 9]	0.25 µg/mL (≈ 0.204 µM)	0.25 µg/mL (≈ 0.204 µM)	0.06 µg/mL (≈ 0.0489 µM)	0.06 µg/mL (≈ 0.0489 µM)	0.5 µg/mL (≈ 0.408 µM)	0.5 µg/mL (≈ 0.408 µM)	0.5 µg/mL (≈ 0.408 µM)	0.25 µg/mL (≈ 0.204 µM)	0.5 µg/mL (≈ 0.408 µM)	0.06 µg/mL (≈ 0.0489 µM)		0.25 µg/mL (≈ 0.204 µM)	0.25 µg/mL (≈ 0.204 µM)	0.5 µg/mL (≈ 0.408 µM)	0.37 µg/mL (≈ 0.302 µM)	0.125 µg/mL (≈ 0.102 µM)				MIC (C. difficile 159): 0.5 µg/mL (≈ 0.408 µM); MIC (S. aureus^VR): 1 µg/mL (≈ 0.815 µM); MIC (S. aureus^MR): 1 µg/mL (≈ 0.815 µM); MIC (E. faecium^VRE; test strain 11, E. faecium^VRE (vancomycin resistant), read-out: MIC): 1 µg/mL (≈ 0.815 µM); MIC (E. faecium^LinR): 0.5 µg/mL (≈ 0.408 µM)
C/C=C1\NC(=O)[C@H]([C@@H](C)O)NC(=O)c2csc(n2)-c2ccc(-c3nc(-c4nc(C(=O)NC5(C(=O)NCCCN6C(=O)NC(C)C6=O)CC5)cs4)cs3)nc2-c2csc(n2)[C@H]([C@@H](C)O)NC(=O)c2csc(n2)[C@H](C(C)C)NC(=O)c2csc1n2 (some centres unmarked) [Compound 37]																0.25 µg/mL (≈ 0.202 µM)	0.25 µg/mL (≈ 0.202 µM)	0.25 µg/mL (≈ 0.202 µM)	0.5 µg/mL (≈ 0.403 µM)	MIC (E. faecalis^LinR): 1 µg/mL (≈ 0.806 µM); MIC (E. faecium): 0.5 µg/mL (≈ 0.403 µM); MIC (M. avium): 0.082 µg/mL (≈ 0.0661 µM); MIC (S. aureus^MS [2]): 0.25 µg/mL (≈ 0.202 µM); MIC (E. faecium^VRE; VRE): 1 µg/mL (≈ 0.806 µM)
C/C=C1\NC(=O)[C@H]([C@@H](C)O)NC(=O)c2csc(n2)-c2ccc(-c3nc(-c4nc(C(=O)NC5(C(=O)NN6CC(=O)N(CC(=O)OC)C6=O)CC5)cs4)cs3)nc2-c2csc(n2)[C@H]([C@@H](C)O)NC(=O)c2csc(n2)[C@H](C(C)C)NC(=O)c2csc1n2 [Compound 26]																0.5 µg/mL (≈ 0.398 µM)	1 µg/mL (≈ 0.796 µM)	1 µg/mL (≈ 0.796 µM)	1 µg/mL (≈ 0.796 µM)	MIC (C. difficile 174; 174): 0.5 µg/mL (≈ 0.398 µM); MIC (C. difficile 152; 152): 0.5 µg/mL (≈ 0.398 µM); MIC (C. difficile 181; 181): 1 µg/mL (≈ 0.796 µM); MIC (C. difficile 9689; 9689): 1 µg/mL (≈ 0.796 µM); MIC (C. difficile 173; 173): 0.5 µg/mL (≈ 0.398 µM); MIC (M. intracelluare): 0.043 µg/mL (≈ 0.0342 µM); MIC (M. abscessus): 0.726 µg/mL (≈ 0.578 µM); MIC (C. difficile 161; 161): 0.5 µg/mL (≈ 0.398 µM)
